Measurements: patent publication US6403647B1, “Pulsed administration of compositions for the treatment of blood disorders” (priority 1996, dated 2002)

System: γ-globin expression
Assay: γ-globin mRNA by RNase protection in erythroid cell cultures of normal individuals
Assay type: cell-based, human
Details: for x increase: over ChFCS
Description: Fetal globin production was determined in erythroid progenitor cells cultured in the presence or absence of test compositions. Erythroid cells were purified from blood obtained from a normal individual . […] Erythroid cell cultures were established with the following conditions: IMDM methylcellulose media, erythropoietin (3 U/ml), the human subjects' mononuclear cells, 30% charcoal-absorbed fetal calf serum, and the test compounds at varying micromolar concentrations.
Compounds were tested for their ability to induce expression of fetal globin expression in erythroid cell cultures established from the peripheral blood of normal individuals. Colonies were harvested and assayed for globin mRNA following 14 days of culture. Each compound was tested in duplicate cultures from 2-4 individual human subjects. Globin expression was quantitated by RNase protection assay for % gamma globin as a fraction of total non-alpha globin (% gamma/gamma+beta globin mRNA).

Compound: CCCC(=O)NO [butyryl hydroxamate]
- x increase (6 μM, group 1 (99-4, 99-5)): 1.0 x
- γ/γ + β (6 μM, group 1, subject 99-4): 2.29%
- γ/γ + β (6 μM, group 1, subject 99-5): 3.40%
- γ/γ + β mean (6 μM, group 1, subjects 99-4, 99-5): 2.85%
- x increase (10 μM, group 1 (99-4, 99-5)): 1.3 x
- γ/γ + β (10 μM, group 1, subject 99-4): 3.44%
- γ/γ + β (10 μM, group 1, subject 99-5): 4.06%
- γ/γ + β mean (10 μM, group 1, subjects 99-4, 99-5): 3.75%
- x increase (20 μM, group 1 (99-4, 99-5)): 1.9 x
- γ/γ + β (20 μM, group 1, subject 99-4): 4.43%
- γ/γ + β (20 μM, group 1, subject 99-5): 6.06%
- γ/γ + β mean (20 μM, group 1, subjects 99-4, 99-5): 6.25%
- x increase (20 μM, group 2 (99-6, 99-7)): 1.0 x
- γ/γ + β (20 μM, group 2, subject 99-6): 8.65%
- γ/γ + β (20 μM, group 2, subject 99-7): 12.49%
- γ/γ + β mean (20 μM, group 2, subjects 99-6, 99-7): 10.57%
- x increase (30 μM, group 1 (99-4, 99-5)): 1.7 x
- γ/γ + β (30 μM, group 1, subject 99-4): 4.12%
- γ/γ + β (30 μM, group 1, subject 99-5): 5.35%
- γ/γ + β mean (30 μM, group 1, subjects 99-4, 99-5): 4.74%
- x increase (40 μM, group 1 (99-4, 99-5)): 2.8 x
- γ/γ + β (40 μM, group 1, subject 99-5): 7.72%
- γ/γ + β mean (40 μM, group 1, subject 99-5 only): 7.72%
- x increase (40 μM, group 2 (99-6, 99-7)): 1.5 x
- γ/γ + β (40 μM, group 2, subject 99-6): 14.81%
- γ/γ + β (40 μM, group 2, subject 99-7): 17.39%
- γ/γ + β mean (40 μM, group 2, subjects 99-6, 99-7): 16.10%
- x increase (60 μM, group 2 (99-6, 99-7)): 4.1 x
- γ/γ + β (60 μM, group 2, subject 99-6): 37.65%
- γ/γ + β (60 μM, group 2, subject 99-7): 51.04%
- γ/γ + β mean (60 μM, group 2, subjects 99-6, 99-7): 44.35%
- x increase (80 μM, group 2 (99-6, 99-7)): 4.7 x
- γ/γ + β (80 μM, group 2, subject 99-6): 44.98%
- γ/γ + β (80 μM, group 2, subject 99-7): 55.39%
- γ/γ + β mean (80 μM, group 2, subjects 99-6, 99-7): 50.19%
- x increase (100 μM, group 2 (99-6, 99-7)): 5.3 x
- γ/γ + β (100 μM, group 2, subject 99-6): 54.06%
- γ/γ + β (100 μM, group 2, subject 99-7): 60.90%
- γ/γ + β mean (100 μM, group 2, subjects 99-6, 99-7): 57.48%

Compound: CCC(=O)NO [propionyl hydroxamate]
- x increase (1 μM, 990709): 1.1 x
- γ/γ + β (1 μM, 990709, subject 99-4): 1.39%
- γ/γ + β (1 μM, 990709, subject 99-5): 2.39%
- γ/γ + β mean (1 μM, 990709, subjects 99-4, 99-5): 1.89%
- x increase (8 μM, 990709): 0.9 x
- γ/γ + β (8 μM, 990709, subject 99-4): 1.19%
- γ/γ + β (8 μM, 990709, subject 99-5): 1.73%
- γ/γ + β mean (8 μM, 990709, subjects 99-4, 99-5): 1.46%
- x increase (10 μM, 990709): 1.5 x
- γ/γ + β (10 μM, 990709, subject 99-4): 1.86%
- γ/γ + β (10 μM, 990709, subject 99-5): 3.28%
- γ/γ + β mean (10 μM, 990709, subjects 99-4, 99-5): 2.57%
- x increase (25 μM, 991208): 1.5 x
- γ/γ + β (25 μM, 991208, subject 00-1): 12.17%
- γ/γ + β (25 μM, 991208, subject 00-3): 12.38%
- γ/γ + β mean (25 μM, 991208, subjects 00-1, 00-3): 12.27%
- x increase (50 μM, 0601-0): 2.5 x
- γ/γ + β (50 μM, 0601-0, subject 00-3): 9.57%
- γ/γ + β mean (50 μM, 0601-0, subject 00-3 only): 9.57%
- x increase (50 μM, 990709): 3.0 x
- γ/γ + β (50 μM, 990709, subject 99-4): 3.80%
- γ/γ + β (50 μM, 990709, subject 99-5): 6.40%
- γ/γ + β mean (50 μM, 990709, subjects 99-4, 99-5): 5.10%
- x increase (50 μM, 991208): 2.5 x
- γ/γ + β (50 μM, 991208, subject 00-1): 20.79%
- γ/γ + β (50 μM, 991208, subject 00-3): 21.30%
- γ/γ + β mean (50 μM, 991208, subjects 00-1, 00-3): 21.05%
- x increase (100 μM, 0601-0): 4.8 x
- γ/γ + β (100 μM, 0601-0, subject 00-3): 16.66%
- γ/γ + β mean (100 μM, 0601-0, subject 00-3 only): 16.66%
- x increase (100 μM, 990709): 4.6 x
- γ/γ + β (100 μM, 990709, subject 99-4): 7.78%
- γ/γ + β (100 μM, 990709, subject 99-5): 8.80%
- γ/γ + β mean (100 μM, 990709, subjects 99-4, 99-5): 7.72%
- x increase (100 μM, 991208): 4.3 x
- γ/γ + β (100 μM, 991208, subject 00-1): 32.74%
- γ/γ + β (100 μM, 991208, subject 00-3): 38.33%
- γ/γ + β mean (100 μM, 991208, subjects 00-1, 00-3): 35.54%
- x increase (125 μM, 991208): 4.7 x
- γ/γ + β (125 μM, 991208, subject 00-1): 37.83%
- γ/γ + β (125 μM, 991208, subject 00-3): 39.14%
- γ/γ + β mean (125 μM, 991208, subjects 00-1, 00-3): 38.49%
- x increase (150 μM, 0601-0): 6.3 x
- γ/γ + β (150 μM, 0601-0, subject 00-3): 24.40%
- γ/γ + β mean (150 μM, 0601-0, subject 00-3 only): 24.40%
- x increase (150 μM, 991208): 6.7 x
- γ/γ + β (150 μM, 991208, subject 00-1): 59.60%
- γ/γ + β (150 μM, 991208, subject 00-3): 51.56%
- γ/γ + β mean (150 μM, 991208, subjects 00-1, 00-3): 55.58%
- fetal (gamma) globin expression, fold over control cultures (5 to 150 micromolar): 1.5-6.7 fold
